Test results: US5688640A, “Methods of screening of effectors of endothelin converting enzyme-1” (Board of Regents, The University of Texas System, priority 1994, dated 1997)

T1: ECE-1 (Bos taurus, UniProt P42891)
T1 construct: The entire coding regions from bovine ECE-1; made in house
T1 sequence (P42891 with tags, fused parts or gaps A87G/A695G limits assumed): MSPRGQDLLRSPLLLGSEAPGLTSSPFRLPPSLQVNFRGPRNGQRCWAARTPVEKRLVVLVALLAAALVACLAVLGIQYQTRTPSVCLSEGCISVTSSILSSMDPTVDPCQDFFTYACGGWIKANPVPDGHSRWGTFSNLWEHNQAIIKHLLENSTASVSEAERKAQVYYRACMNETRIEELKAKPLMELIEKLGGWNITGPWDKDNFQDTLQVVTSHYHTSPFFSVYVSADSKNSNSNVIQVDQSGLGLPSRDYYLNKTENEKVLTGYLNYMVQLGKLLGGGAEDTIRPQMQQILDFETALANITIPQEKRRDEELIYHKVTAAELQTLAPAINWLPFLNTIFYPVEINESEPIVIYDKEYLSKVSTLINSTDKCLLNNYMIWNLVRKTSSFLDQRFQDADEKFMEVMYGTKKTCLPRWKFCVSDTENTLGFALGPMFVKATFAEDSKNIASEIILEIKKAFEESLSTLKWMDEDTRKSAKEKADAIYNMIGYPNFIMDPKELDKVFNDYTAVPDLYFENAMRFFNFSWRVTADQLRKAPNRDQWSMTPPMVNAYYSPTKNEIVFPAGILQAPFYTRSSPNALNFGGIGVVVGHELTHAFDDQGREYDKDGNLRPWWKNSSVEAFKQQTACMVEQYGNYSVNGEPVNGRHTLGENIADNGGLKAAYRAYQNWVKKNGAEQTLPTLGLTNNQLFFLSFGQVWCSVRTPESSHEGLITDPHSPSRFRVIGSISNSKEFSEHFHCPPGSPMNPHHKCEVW

B1: ECE-1: novel 758-amino acid polypeptide, bovine endothelin converting enzyme-1 (protein, UniProt P42891 1-754, looked up)
chain: MMSTYKRATLDEEDLVDSLSESDVYPNHLQVNFRGPRNGQRCWAARTPVEKRLVVLVALLAAALVACLAVLGIQYQTRTPSVCLSEACISVTSSILSSMDPTVDPCQDFFTYACGGWIKANPVPDGHSRWGTFSNLWEHNQAIIKHLLENSTASVSEAERKAQVYYRACMNETRIEELKAKPLMELIEKLGGWNITGPWDKDNFQDTLQVVTSHYHTSPFFSVYVSADSKNSNSNVIQVDQSGLGLPSRDYYLNKTENEKVLTGYLNYMVQLGKLLGGGAEDTIRPQMQQILDFETALANITIPQEKRRDEELIYHKVTAAELQTLAPAINWLPFLNTIFYPVEINESEPIVIYDKEYLSKVSTLINSTDKCLLNNYMIWNLVRKTSSFLDQRFQDADEKFMEVMYGTKKTCLPRWKFCVSDTENTLGFALGPMFVKATFAEDSKNIASEIILEIKKAFEESLSTLKWMDEDTRKSAKEKADAIYNMIGYPNFIMDPKELDKVFNDYTAVPDLYFENAMRFFNFSWRVTADQLRKAPNRDQWSMTPPMVNAYYSPTKNEIVFPAGILQAPFYTRSSPNALNFGGIGVVVGHELTHAFDDQGREYDKDGNLRPWWKNSSVEAFKQQTACMVEQYGNYSVNGEPVNGRHTLGENIADNGGLKAAYRAYQNWVKKNGAEQTLPTLGLTNNQLFFLSFAQVWCSVRTPESSHEGLITDPHSPSRFRVIGSISNSKEFSEHFHCPPGSPMNPHHKCEVW
modifications: full-length

Tests used:
NEP = conditions: cited from earlier work
ECE-1 [1] = target: T1, ECE-1; assay: Secretion of big and mature ET-1 by preproET-1-transfected CHO/ECE-1 cells (conversion of endogenous big ET-1); format: cell-based, bovine; conditions: preproET-1-transfected CHO/ECE-1 cells
Description: Transient transfection of the preproET-1 cDNA was performed by the DEAE-dextran method as described (Sakurai et al., 1990). Twelve hours after transfection, cells were refed with fresh medium with or without ECE inhibitors. The medium was conditioned for an additional 12 hours and directly subjected to EIA for mature and big ET-1 (Suzuki et al., 1990; Suzuki et al., 1989). For the Ca^2+ transient bioassay (see below), Phenol Red-free CHO-SFM medium (Gibco/BRL) without serum was used in order to avoid artefacts induced by serum and the dye.
To examine whether the expressed ECE-1 can convert big ET-1 in intact cells, paired cultures of CHO/ECE-1 cells and untransfected CHO cells were transiently transfected with the preproET-1 construct. After the transient transfection, the amounts of mature and big ET-1 secreted into the medium were measured by EIA. […] The functional authenticity of the immunoreactive mature peptide produced from the double-transfected cells was examined with a bioassay system that uses another line of CHO cells expressing human ETA receptors as reporter cells. […] The cells were loaded with the Ca^2+ indicator Fura-2/AM, and directly challenged with serum-free, Phenol Red-free culture supernatants from the aforementioned double-transfection protocols. […] Next the supernatants from the preproET-1-transfected CHO/ECE-1 cells were added, so that the final concentration of ET-1 as measured by EIA was ≈20 pM.

[2] = ET-1(1-20) and ET-1(1-22) relative to authentic ET-1(1-21); cited from earlier work
ECE-1 [3] = target: T1, ECE-1; assay: pH profile of ECE-1 activity in solubilized CHO/ECE-1 membranes; format: biochemical, bovine
Description: FIG. 2C. pH profile of ECE-1 activity expressed in solubilized CHO/ECE-1 membranes.
Reaction mixtures for ECE assay (50 μl) contained 0.1M sodium phosphate buffer (pH 6.8), 0.5M NaCl, 0.1 μM human big ET-1(1-38) and enzyme fraction. For some studies, the reactions were preincubated at 37° C. with various protease inhibitors for 15 minutes prior to the addition of big ET-1. The reactions were incubated at 37° C. for 30 min in siliconized 0.5-ml microcentrifuge tubes. […] Duplicate assay wells were used for each enzyme reaction. Protein concentration was determined by the Bradford method (Bio-Rad) using IgG as standard.

Molecule | degradation by NEP (in words) (NEP) | concentration secreted in culture supernatant (ECE-1 [1]) | vasoconstrictor/biological activity (in words) [2] | optimal pH of ECE activity (ECE-1 [3])
mature ET-1: 21-residue mature peptide; human ET-1(1-21) obtained from American Peptides | rapidly degrades | 241 pM | the most potent vasoconstrictor substance known | –
B1 | – | – | – | 6.8
